Test: Cytotoxicity against human H460 cells after 48 hrs by MTT assay
Assay type: functional, cell-based
Conditions: NCI-H460, 48 h

With `CCC[C@H]1NC(=O)[C@H](C)NC(=O)[C@H](CC(C)C)N(C)C(=O)[C@H](Cc2ccccc2)NC(=O)[C@H](CCSC)NC(=O)[C@@H](Cc2ccccc2)N(C)C(=O)[C@@H](C(C)C)OC(=O)[C@H]1C` [PRECARRIEBOWMIDE] as the compound, how does the IC50 read?
The IC50 was over 10 µM.
